# Test: Thermo Scientific Acclaim RSLC 120 C18, 100 × 2.1 mm, 2.2 µm, 30 °C; A: 90% water + 10% methanol + 0.01% formic acid + 5 mM ammonium formate; B: methanol + 0.01% formic acid + 5 mM ammonium formate; gradient (min/%B) 0.1/1 3/39 14/99.9 16/99.9
# Settings: stereoisomer not certain
row,LC retention time [min],Compound
1,9.26,CN(C)CCCn1c2c(c3ccccc31)CCCCCC2
2,6.89,CN(C)CCC=C1c2ccccc2COc2ccc(CC(=O)O)cc21
3,5.11,COc1ccccc1OCC(O)CO (centres undefined)
4,10.3,COC(=O)C1=C(C#N)NC(C)=C(C(=O)OC(C)C)C1c1cccc([N+](=O)[O-])c1 (centres undefined)
5,11.2,COC1C(OC(N)=O)C(O)C(Oc2ccc3c(O)c(NC(=O)c4ccc(O)c(CC=C(C)C)c4)c(=O)oc3c2C)OC1(C)C (centres undefined)
6,3.81,O=C(O)c1ccc2n[nH]nc2c1
7,5.96,CC(CC(C#N)(c1ccccc1)C(C)C)N(C)C (centres undefined)
8,5.72,Cc1c(NC(C)C)c(=O)n(-c2ccccc2)n1C
9,4.49,Cc1c(N(C)CS(=O)(=O)O)c(=O)n(-c2ccccc2)n1C
10,6.59,CC(C)NCC(O)COc1cccc2ccccc12 (centres undefined)
11,5.67,CC(=O)Nc1ccc(-c2ccc(C=NN3CC(=O)NC3=O)o2)cc1
12,13,CC12CCC(=O)C=C1CCC1C2CCC2(C)C(C(=O)COC(=O)CCc3ccccc3)CCC12 (centres undefined)
13,10.4,CCSc1ccc2c(c1)N(CCCN1CCN(C)CC1)c1ccccc1S2
14,9.04,CCOc1ccc(NC(=O)OC(C)C)cc1OCC
15,3.24,CN=C(NC#N)NCCSCc1nc[nH]c1C
16,9.69,CC(C)(C)c1ccc(C(O)CCCN2CCC(C(O)(c3ccccc3)c3ccccc3)CC2)cc1 (centres undefined)
17,4.66,CC(C)(C)NCC(O)COc1ccccc1C#N (centres undefined)
18,6.67,Cc1ccc(NC=O)c(C)c1
19,7.08,O=C1NC(=O)C(c2ccccc2)(c2ccccc2)N1
20,7.28,CCOc1ccccc1OC(c1ccccc1)C1CNCCO1 (centres undefined)

row,LC retention time [min],Compound
1,4.76,c1ccc2n[nH]nc2c1
2,5.93,Oc1ccc(C=Cc2cc(O)cc(O)c2)cc1
3,2.19,O=c1[nH]cnc2[nH]ncc12
4,6.89,S=c1[nH]c2ccccc2s1
5,2.61,Cn1cc[nH]c1=S
6,7.17,NS(=O)(=O)c1cc(C(=O)O)cc(N2CCCC2)c1Oc1ccccc1
7,4.84,c1ccc2c(CC3=NCCN3)cccc2c1
8,11.9,CCOc1cc(CC(=O)NC(CC(C)C)c2ccccc2N2CCCCC2)ccc1C(=O)O (centres undefined)
9,4.16,Cc1nnc(SCC2=C(C(=O)O)N3C(=O)C(NC(=O)Cn4cnnn4)C3SC2)s1 (centres undefined)
10,4.11,NS(=O)(=O)c1ccc(N2CCCCS2(=O)=O)cc1
11,1.79,NCC1CCC(C(=O)O)CC1 (centres undefined)
12,14.9,Cc1ccc(N=Nc2c(O)ccc3ccccc23)c(C)c1
13,7.29,CN(C)CCOc1ccccc1Cc1ccccc1
14,5.29,Cc1cccc(OCC(O)CNC(C)C)c1 (centres undefined)
15,5.18,CN(C)CCOC(C)(c1ccccc1)c1ccccn1 (centres undefined)
16,7.9,CCc1cc2c(cc1CC)CC(NCC(O)c1ccc(O)c3[nH]c(=O)ccc13)C2 (centres undefined)
17,4.59,CC(CS)C(=O)N1CCCC1C(=O)O (centres undefined)
18,4.59,CCN(CC)CC(=O)Nc1c(C)cccc1C(=O)OC
19,2.18,NNC(=O)c1ccncc1
20,8.24,COc1ccc(-c2oc3c(CC=C(C)C)c(OC4OC(CO)C(O)C(O)C4O)cc(O)c3c(=O)c2OC2OC(C)C(O)C(O)C2O)cc1 (centres undefined)

row,LC retention time [min],Compound
1,8.15,CN1CCN(CCCN2c3ccccc3Sc3ccc(S(=O)(=O)N(C)C)cc32)CC1
2,9.21,CC12CCC(O)CC1CCC1C2C(=O)CC2(C)C1CCC2(O)C(=O)CO (centres undefined)
3,4.76,NC(=O)c1ccccc1O
4,7.86,CN1CCC(=C2c3ccccc3CCc3sccc32)CC1
5,6.71,C=CCc1ccccc1OCC(O)CNC(C)C (centres undefined)
6,6.28,COCC(C)N(C(=O)CS(=O)(=O)O)c1c(C)csc1C (centres undefined)
7,4.88,CC(C)(C)NCC(O)COc1nsnc1N1CCOCC1 (centres undefined)
8,3.93,CC(C)NCC(O)COc1ccc(CC(=O)O)cc1 (centres undefined)
9,4.47,c1ccc2c(c1)CCCC2C1=NCCN1 (centres undefined)
10,7.25,CCC1OC(=O)C(C)C(=O)C(C)C(OC2OC(C)CC(N(C)C)C2O)C(C)(OC)CC(C)C(=O)C(C)C2N(CCCCn3cnc(-c4cccnc4)c3)C(=O)OC12C (centres undefined)
11,2.54,CNCC(O)c1cccc(NS(C)(=O)=O)c1 (centres undefined)
12,6.53,O=c1[nH]c2ccccc2s1
13,5.46,CC(C)N(C(=O)CS(=O)(=O)O)c1ccccc1
14,5.04,CCC12CCCN3CCc4c(n(c5ccccc45)C(O)(C(=O)OC)C1)C32 (centres undefined)
15,6.69,CCC1OC(=O)CC(O)C(C)C(OC2OC(C)C(O)C(N(C)C)C2O)C(CCN2CC(C)CC(C)C2)CC(C)C(=O)C=CC(C)=CC1COC1OC(C)C(O)C(OC)C1OC (centres undefined)
16,13.1,CC=CC(=O)Oc1c(C(C)CCCCCC)cc([N+](=O)[O-])cc1[N+](=O)[O-] (centres undefined)
17,9.65,CSC(=O)c1cccc2nnsc12
18,9.29,CCCCCCOC(=O)NC(=N)c1ccc(NCc2nc3cc(C(=O)N(CCC(=O)OCC)c4ccccn4)ccc3n2C)cc1
19,7.72,CC(=O)c1ccc(S(=O)(=O)NC(=O)NC2CCCCC2)cc1
20,5.66,O=C(O)c1cc(N=Nc2ccc(O)c(C(=O)O)c2)ccc1O

row,Compound,LC retention time [min]
1,COc1ccc2c3c1OC1C(O)C=CC4C(C2)NCCC341 (centres undefined),3.5
2,NC(=O)CS(=O)C(c1ccccc1)c1ccccc1 (centres undefined),6.76
3,COP(=S)(OC)Oc1ccc(S(C)=O)c(C)c1 (centres undefined),7.28
4,CCN(CCO)CCn1c(Cc2ccccc2)nc2c1c(=O)n(C)c(=O)n2C,5.24
5,C=CCN1CCC23c4c5ccc(O)c4OC2C(O)C=CC3C1C5 (centres undefined),3.39
6,CC1CCCCC1NC(=O)Nc1ccccc1 (centres undefined),9.37
7,CCOP(=S)(OCC)Oc1cnccn1,8.35
8,CNC(=O)Oc1ccc(N(C)C)c(C)c1,5.15
9,O=C(OC1CC2CCC(C1)[N+]21CCCC1)C(O)(c1ccccc1)c1ccccc1 (centres undefined),5.72
10,COc1cc(SC(C)C)c(OC)cc1CCN,6.69
11,CC(C)N1C(=O)N(c2ccccc2)CSC1=NC(C)(C)C,12.2
12,Cc1cc(C)nc(Nc2ccccc2)n1,9.44
13,CCS(=O)CCSP(=O)(OC)OC (centres undefined),3.98
14,COc1cccc(C(=O)NN(C(=O)c2cc(C)cc(C)c2)C(C)(C)C)c1C,9.56
15,NNC(N)=O,1.33
16,CCOP(=O)(OCC)OCC,6.16
17,COC(=O)Nc1cccc(OC(=O)Nc2cccc(C)c2)c1,8.75
18,CN1CCC23c4c5ccc(O)c4OC2CCCC3C1C5 (centres undefined),3.84
19,COCC(NC(C)=O)C(=O)NCc1ccccc1 (centres undefined),5.09
20,CCOP(=S)(Oc1ccc([N+](=O)[O-])cc1)c1ccccc1 (centres undefined),11.7
21,CCOC(=O)CCN(SN(C)C(=O)Oc1cccc2c1OC(C)(C)C2)C(C)C,11.9
22,CCNC1C2CCC(C2)C1c1ccccc1 (centres undefined),6.08
23,CCN(CC)CCOC(=O)C(O)(c1ccccc1)c1ccccc1,6.08
24,CNC(=O)Oc1cccc2c1OC(C)(C)C2,7.01
25,CCSCc1ccccc1OC(=O)NC,7.7
26,CC(C)C(NC(=O)c1nn(CC2CCCCC2)c2ccccc12)C(N)=O (centres undefined),11.3
27,CCN(CC)C(=O)C1C=C2c3cccc4[nH]cc(c34)CC2NC1 (centres undefined),5.56

row,Compound,LC retention time [min]
1,NC(=O)C(CCN1CCCCC1)(c1ccccc1)c1ccccc1,5.19
2,CCCCn1cc(C(=O)c2c(C)ccc3ccccc23)c2ccccc21,12.3
3,CCC(=O)OC(Cc1ccccc1)(c1ccccc1)C(C)CN(C)C (centres undefined),7.73
4,COP(=O)(OC)Oc1ccc([N+](=O)[O-])cc1,6.36
5,CCCNC(C)Cc1ccccc1 (centres undefined),4.83
6,CCOC(=O)CCN(Cc1ccccc1)SN(C)C(=O)ON=C(C)SC,10.8
7,CN(C)C(=S)SSC(=S)N(C)C,6.8
8,CCCCCn1cc(C(=O)c2ccccc2OC)c2ccccc21,11.2
9,CCCCCC(C)n1c(C)c(C(=O)c2cccc3ccccc23)c2ccccc21 (centres undefined),13
10,COC(=O)C1C2CCC(CC1OC(=O)c1ccccc1)N2 (centres undefined),5.15
11,CCNc1nc(NCC)nc(SC)n1,8.14
12,CCCCOC(=O)N(C)SN(C)C(=O)Oc1cccc2c1OC(C)(C)C2,12.1
13,CNC(C)Cc1ccc(O)c(O)c1 (centres undefined),2.59
14,CCCCCn1cc(C(=O)c2cccc3ccccc23)c2cc(O)ccc21,11.3
15,COC(=O)C1=CCCN(C)C1,1.74
16,CCCCCc1cc(O)c2c(c1)OC(C)(C)C1CCC(CO)=CC21 (centres undefined),12.5
17,CCOC(=O)Nc1cccc(OC(=O)Nc2ccccc2)c1,8.57
18,CCC(C)CC(C)N (centres undefined),4.68
19,COC(=O)C(C)N(C(=O)Cc1ccccc1)c1c(C)cccc1C (centres undefined),10.9
20,O=C(O)C1C2CCC(O2)C1C(=O)O (centres undefined),3.2
21,CNC(=O)Oc1cccc(N=CN(C)C)c1,3.14
22,CNCC(O)c1ccc(O)cc1 (centres undefined),1.6
23,CCOc1ccc(C(C)(C)COCc2cccc(Oc3ccccc3)c2)cc1,14.1
24,CCN(C(=O)SCc1ccccc1)C(C)C(C)C (centres undefined),12.2
25,CN1CSC(=S)N(C)C1,3.97
26,CCS(=O)(=O)c1cccnc1S(=O)(=O)NC(=O)Nc1nc(OC)cc(OC)n1,7.09
27,CCC(C(=O)c1ccc2c(c1)OCO2)N(C)C (centres undefined),4.38

# Reference: the RepoRT retention time repository (doi:10.1016/j.jhazmat.2019.121712)
